Assay results: patent US6946253B2, “Herpes zinc finger motifs” (University Court of the University of Glasgow, priority 2000, dated 2005)

Columns and labels:
[1] = system: baby hamster kidney BHK21/C13 cells; assay: Cytotoxicity, Trypan Blue exclusion staining; format: cell-based; conditions: 100 μM (highest concentration), up to 4 days
Description: Cytotoxicity. Both compounds azodicarbonamide (ADA, NSC 674447) and 2,2′,-dithiobisbenzamide (DIBA, NSC 654077) were dissolved at the appropriate concentration in 0.1% (v/v) dimethylsulphoxide (DMSO) in Eagle's modified medium. Confluent monolayers (2×10^6) of baby hamster kidney BHK21/C13 cells were incubated with various concentrations of either ADA or DIBA (1,10,100 μM) or as a control 0.1% (v/v) DMSO, and cell viability determined every day for 4 days by Trypan Blue exclusion staining (23).
Determination or cytotoxicity of ADA and DIBA. In view of the distinctive sequence conservation of the IE63 zinc finger two previously known zinc-ejecting anti-HIV-1 compounds, 2,2′-dithiobisbenzamide (DIBA) and azodicarbonamide (ADA) were tested for their effect on herpesvirus. To separate any effect on cell viability from a specific effect on virus replication, the effect of incubating BHK21/C13 cells in various concentrations of ADA, DIBA, and 0.1% (v/v) DMSO as a control, for up to 4 days was determined. Even at the highest concentration used (100 μM) 95% of the cells were viable compared to untreated BHK21/C13 cells (data not shown). Indeed any cytotoxicity observed was due to the DMSO in which the drugs were dissolved, as the cytotoxicity was equally great in those cells incubated with only DMSO (data not shown).

[2] = system: herpes simplex virus type 1 (HSV-1) strain 17; assay: Virus replication (virus yield) in BHK21/C13 cells; format: cell-based; conditions: moi 5, 24 h pi
Description: (§1) Virus replication. Semi-confluent monolayers of BHK21/C13 cells (2×10^6) were pre-incubated with the appropriate drug concentration, 0.1% DMSO (v/v) or mock treated as a control for 24 h and subsequently infected at a multiplicity of infection (moi) of 5 plaque forming units (pfu)/cell with either herpes simplex virus type 1 (HSV-1) strain 17 or HSV-2 strain HG52 and harvested 24 h post-infection (pi). The virus yield was determined by releasing the virus into the supernatant by sonication and titration on BHK21/C13 cells. Results were expressed as pfu/10^6 cells and % reduction in yield as compared to the untreated control (23).
(§2) Antiviral effect of ADA and DIBA. Two experiments were carried out. In the first, the effect of varying concentrations of ADA and DIBA on the replication of HSV-1 was analysed. In the second, the effect on both HSV-1 and HSV-2 was determined.

HSV-2 strain HG52 = assay: Virus replication (virus yield) in BHK21/C13 cells; format: cell-based, herpes simplex virus type 2; conditions: experiment 2 (Table 2), moi 5, 24 h pi
Description: as §1, §2

HSV-1 = assay: Plaque reduction assay in BHK21/C13 cells; format: cell-based, herpes simplex virus type 1; conditions: HSV-1, plaque reduction assay
Description: (§3) Plaque reduction assay. Confluent monolayers (4×10^6 cells) of BHK21/C13 cells were preincubated with the appropriate drug concentration, 0.1% DMSO(v/v) or mock treated as a control for 24 h and subsequently infected at a moi of 400 pfu/plate with either HSV-1 or HSV-2 and incubated for 48 h at 37° C. […] Tests of each drug concentration were performed in triplicate and the average of the 3 plates calculated. Results were expressed as pfu/plate and % of the number of plaques on the untreated control plates (23).
(§4) Plaquing Efficiency in the Presence of ADA and DIBA. To determine if the reduction in virus yield seen in the previous experiment was due to a virucidal effect, inhibition of virus entry (adsorption penetration) or intracellular replication, a plaque reduction assay was carried out. Here, the ability of the virus to plaque was measured. An effect on the stability of the virus particle or virus entry would lead to a reduction in the number of plaques compared to the control untreated plates for a given amount of virus. In contrast, an effect on intracellular virus replication would not lead to a significant reduction in plaques.

HSV-2 = assay: Plaque reduction assay in BHK21/C13 cells; format: cell-based, herpes simplex virus type 2; conditions: HSV-2, plaque reduction assay
Description: as §3, with “Results were expressed as pfu/plate and % of the number of plaques on the untreated control plates (23).” left out
as §4

[3] = experiment 1 (Table 1), HSV-1, 1 μM
[4] = experiment 1 (Table 1), HSV-1, 10 μM
[5] = experiment 1 (Table 1), HSV-1, 100 μM
[6] = experiment 2 (Table 2), HSV-1, 1 μM
[7] = experiment 2 (Table 2), HSV-1, 10 μM
[8] = experiment 2 (Table 2), HSV-1, 100 μM

SMILES | cells viable compared to untreated BHK21/C13 cells [1] [%] | % UNTREATED CONTROL (virus yield) [2, 3] [%] | VIRUS YIELD (pfu/10^6 BHK cells) [2, 3] | VIRUS YIELD (pfu/BHK cell) [2, 3] [pfu/BHK cell] | % UNTREATED CONTROL (virus yield) [2, 4] [%] | VIRUS YIELD (pfu/10^6 BHK cells) [2, 4] | VIRUS YIELD (pfu/BHK cell) [2, 4] [pfu/BHK cell] | % UNTREATED CONTROL (virus yield) [2, 5] [%] | VIRUS YIELD (pfu/10^6 BHK cells) [2, 5] | VIRUS YIELD (pfu/BHK cell) [2, 5] [pfu/BHK cell] | % UNTREATED CONTROL (virus yield) [2, 6] [%] | VIRUS YIELD (pfu/10^6 BHK cells) [2, 6] | VIRUS YIELD (pfu/BHK cell) [2, 6] [pfu/BHK cell] | % UNTREATED CONTROL (virus yield) [2, 7] [%] | VIRUS YIELD (pfu/10^6 BHK cells) [2, 7] | VIRUS YIELD (pfu/BHK cell) [2, 7] [pfu/BHK cell] | VIRUS YIELD (pfu/10^6 BHK cells) [2, 8] | VIRUS YIELD (pfu/BHK cell) [2, 8] [pfu/BHK cell] | % UNTREATED CONTROL (virus yield) (HSV-2 strain HG52; HSV-2, 1 μM) [%] | VIRUS YIELD (pfu/10^6 BHK cells) (HSV-2 strain HG52; HSV-2, 1 μM) | also measured
NC(=O)N=NC(N)=O [ADA, azodicarbonamide] | 95 | 76 | 6.1 × 10^8 pfu/10^6 BHK cells | 610 | 19 | 1.5 × 10^8 pfu/10^6 BHK cells | 150 | 11 | 9 × 10^6 pfu/10^6 BHK cells | 9.0 | 15 | 9.3 × 10^7 pfu/10^6 BHK cells | 93 | 1.4 | 8.5 × 10^6 pfu/10^6 BHK cells | 8.5 | 1.2 × 10^6 pfu/10^6 BHK cells | 1.2 | 13 | 9.4 × 10^6 pfu/10^6 BHK cells | VIRUS YIELD (pfu/BHK cell) (HSV-2 strain HG52; HSV-2, 1 μM): 9.4 pfu/BHK cell; % UNTREATED CONTROL (virus yield) (HSV-2 strain HG52; HSV-2, 10 μM): 1.2%; VIRUS YIELD (pfu/10^6 BHK cells) (HSV-2 strain HG52; HSV-2, 10 μM): 8.5 × 10^5 pfu/10^6 BHK cells; VIRUS YIELD (pfu/BHK cell) (HSV-2 strain HG52; HSV-2, 10 μM): 0.85 pfu/BHK cell; VIRUS YIELD (pfu/10^6 BHK cells) (HSV-2 strain HG52; HSV-2, 100 μM): 2.3 × 10^5 pfu/10^6 BHK cells; VIRUS YIELD (pfu/BHK cell) (HSV-2 strain HG52; HSV-2, 100 μM): 0.23 pfu/BHK cell; size of the plaques (HSV-1): reduction in the size of the plaques; size of the plaques (HSV-2): reduction in the size of the plaques
NC(=O)c1ccccc1SSc1ccccc1C(N)=O [DIBA, 2,2′-dithiobisbenzamide] | 95 | 85 | 6.8 × 10^8 pfu/10^6 BHK cells | 680 | 20 | 1.6 × 10^8 pfu/10^6 BHK cells | 160 | 2.5 | 2 × 10^7 pfu/10^6 BHK cells | 20 | 20 | 1.2 × 10^8 pfu/10^6 BHK cells | 120 | 1.6 | 9.6 × 10^6 pfu/10^6 BHK cells | 9.6 | 1.9 × 10^6 pfu/10^6 BHK cells | 1.9 | 17 | 1.2 × 10^7 pfu/10^6 BHK cells | VIRUS YIELD (pfu/BHK cell) (HSV-2 strain HG52; HSV-2, 1 μM): 12 pfu/BHK cell; % UNTREATED CONTROL (virus yield) (HSV-2 strain HG52; HSV-2, 10 μM): 2%; VIRUS YIELD (pfu/10^6 BHK cells) (HSV-2 strain HG52; HSV-2, 10 μM): 1.4 × 10^6 pfu/10^6 BHK cells; VIRUS YIELD (pfu/BHK cell) (HSV-2 strain HG52; HSV-2, 10 μM): 1.4 pfu/BHK cell; VIRUS YIELD (pfu/10^6 BHK cells) (HSV-2 strain HG52; HSV-2, 100 μM): 3.1 × 10^5 pfu/10^6 BHK cells; VIRUS YIELD (pfu/BHK cell) (HSV-2 strain HG52; HSV-2, 100 μM): 0.31 pfu/BHK cell; size of the plaques (HSV-1): reduction in the size of the plaques; size of the plaques (HSV-2): reduction in the size of the plaques
